Laboratory results from the NIST ThermoML archive (doi:10.1016/j.jct.2013.08.021).
Numbers after ± are expanded uncertainties.

What was measured:
[1] = 101 kPa, Liquid; for speed of sound: Sing-around technique in a fixed-path interferometer; for mass density: Vibrating tube method
[2] = refractive index (Na D-line) (dimensionless); details: 101.33 kPa, Liquid, Standard Abbe refractometry
[3] = xn = mol fraction of the nth substance listed; details: 101 kPa, Liquid, x1 = 1; for speed of sound: Sing-around technique in a fixed-path interferometer; for mass density: Vibrating tube method
[4] = refractive index (Na D-line) (dimensionless); xn = mol fraction of the nth substance listed; details: 101 kPa, Liquid, Standard Abbe refractometry, x1 = 1

SMILES: CCO [ethanol]
- speed of sound ([1]; 298.15 K): 1143.9 ± 1.1 m/s
- mass density ([1]; 298.15 K): 785.48 ± 0.15 kg/m3
- speed of sound ([1]; 303.15 K): 1128 ± 1.1 m/s
- mass density ([1]; 303.15 K): 781.16 ± 0.15 kg/m3
- speed of sound ([1]; 308.15 K): 1111.8 ± 1.1 m/s
- mass density ([1]; 308.15 K): 776.81 ± 0.15 kg/m3
- refractive index ([2]; 298.15 K): 1.35932 ± 0.00031
- refractive index ([2]; 303.15 K): 1.35728 ± 0.00031
- refractive index ([2]; 308.15 K): 1.35519 ± 0.00031

SMILES: CCO [ethanol] + CCC[N+]1(C)CCCC1.O=S(=O)([N-]S(=O)(=O)C(F)(F)F)C(F)(F)F
- speed of sound ([3]; 298.15 K): 1143.9 ± 1.1 m/s
- mass density ([3]; 298.15 K): 785.48 ± 0.15 kg/m3
- speed of sound ([3]; 303.15 K): 1128 ± 1.1 m/s
- mass density ([3]; 303.15 K): 781.16 ± 0.15 kg/m3
- speed of sound ([3]; 308.15 K): 1111.8 ± 1.1 m/s
- mass density ([3]; 308.15 K): 776.81 ± 0.15 kg/m3
- refractive index ([4]; 298.15 K): 1.35932 ± 0.00031
- refractive index ([4]; 303.15 K): 1.35728 ± 0.00031
- refractive index ([4]; 308.15 K): 1.35519 ± 0.00031

SMILES: CO [methanol]
- speed of sound ([1]; 298.15 K): 1102.7 ± 1.1 m/s
- mass density ([1]; 298.15 K): 786.66 ± 0.15 kg/m3
- speed of sound ([1]; 303.15 K): 1086.3 ± 1.1 m/s
- mass density ([1]; 303.15 K): 781.95 ± 0.15 kg/m3
- speed of sound ([1]; 308.15 K): 1070.1 ± 1.1 m/s
- mass density ([1]; 308.15 K): 777.2 ± 0.15 kg/m3
- refractive index ([2]; 298.15 K): 1.3265 ± 0.00031
- refractive index ([2]; 303.15 K): 1.32452 ± 0.00031
- refractive index ([2]; 308.15 K): 1.32254 ± 0.00031

SMILES: CO [methanol] + CCC[N+]1(C)CCCC1.O=S(=O)([N-]S(=O)(=O)C(F)(F)F)C(F)(F)F
- speed of sound ([3]; 298.15 K): 1102.7 ± 1.1 m/s
- mass density ([3]; 298.15 K): 786.66 ± 0.15 kg/m3
- speed of sound ([3]; 303.15 K): 1086.3 ± 1.1 m/s
- mass density ([3]; 303.15 K): 781.95 ± 0.15 kg/m3
- speed of sound ([3]; 308.15 K): 1070.1 ± 1.1 m/s
- mass density ([3]; 308.15 K): 777.2 ± 0.15 kg/m3
- refractive index ([4]; 298.15 K): 1.3265 ± 0.00031
- refractive index ([4]; 303.15 K): 1.32452 ± 0.00031
- refractive index ([4]; 308.15 K): 1.32254 ± 0.00031

SMILES: CCCO [propan-1-ol]
- speed of sound ([1]; 298.15 K): 1206.6 ± 1.2 m/s
- mass density ([1]; 298.15 K): 799.87 ± 0.14 kg/m3
- speed of sound ([1]; 303.15 K): 1189.5 ± 1.2 m/s
- mass density ([1]; 303.15 K): 795.94 ± 0.14 kg/m3
- speed of sound ([1]; 308.15 K): 1172.4 ± 1.2 m/s
- mass density ([1]; 308.15 K): 791.78 ± 0.15 kg/m3
- refractive index ([2]; 298.15 K): 1.38309 ± 0.00031
- refractive index ([2]; 303.15 K): 1.38106 ± 0.00031
- refractive index ([2]; 308.15 K): 1.37894 ± 0.00031

SMILES: CCCO [propan-1-ol] + CCC[N+]1(C)CCCC1.O=S(=O)([N-]S(=O)(=O)C(F)(F)F)C(F)(F)F
- speed of sound ([3]; 298.15 K): 1206.6 ± 1.2 m/s
- mass density ([3]; 298.15 K): 799.87 ± 0.14 kg/m3
- speed of sound ([3]; 303.15 K): 1189.5 ± 1.2 m/s
- mass density ([3]; 303.15 K): 795.94 ± 0.14 kg/m3
- speed of sound ([3]; 308.15 K): 1172.4 ± 1.2 m/s
- mass density ([3]; 308.15 K): 791.78 ± 0.15 kg/m3
- refractive index ([4]; 298.15 K): 1.38309 ± 0.00031
- refractive index ([4]; 303.15 K): 1.38106 ± 0.00031
- refractive index ([4]; 308.15 K): 1.37894 ± 0.00031
